Data as given in ChEMBL document CHEMBL4177643, “Trisubstituted purine inhibitors of PDGFRα and their antileukemic activity in the human eosinophilic cell line EOL-1” (Bioorg Med Chem, 2017).

Key:
EOL1 [1] = assay: Cell cycle arrest in human EOL-1 cells assessed as accumulation at G1 phase at 0.2 uM after 24 hrs by propidium iodide staining-based flow cytometry (reference value: 60.9%); type: functional
MCF7 = assay: Cytotoxicity against human MCF7 cells assessed as growth inhibition after 72 hrs by calcein-AM dye based fluorescence assay; type: functional; conditions: MCF7, 72 h
EOL1 [2] = assay: Cell cycle arrest in human EOL-1 cells assessed as accumulation at sub-G1 phase at 0.04 uM after 24 hrs by propidium iodide staining-based flow cytometry (reference value: 20%); type: functional
EOL1 [3] = assay: Cell cycle arrest in human EOL-1 cells assessed as accumulation at G2/M phase at 0.2 uM after 24 hrs by propidium iodide staining-based flow cytometry (reference value: 18.4%); type: functional
EOL1 [4] = assay: Cell cycle arrest in human EOL-1 cells assessed as accumulation at S phase at 1 uM after 24 hrs by propidium iodide staining-based flow cytometry (reference value: 20.7%); type: functional
EOL1 [5] = assay: Cell cycle arrest in human EOL-1 cells assessed as G1/G2-M ratio at GI50 concentration after 24 hrs by propidium iodide staining-based flow cytometry relative to control; type: functional
HCC827 [6] = assay: Cell cycle arrest in human HCC827 cells assessed as G1/G2-M ratio at GI50 concentration after 24 hrs by propidium iodide staining-based flow cytometry relative to control; type: functional
HCC827 [7] = assay: Cytotoxicity against human HCC827 cells assessed as growth inhibition after 72 hrs by calcein-AM dye based fluorescence assay; type: functional; conditions: HCC827, 72 h
EOL1 [8] = assay: Cell cycle arrest in human EOL-1 cells assessed as accumulation at S phase at 0.008 uM after 24 hrs by propidium iodide staining-based flow cytometry (reference value: 20.7%); type: functional
EOL1 [9] = assay: Cell cycle arrest in human EOL-1 cells assessed as accumulation at G2/M phase at 1 uM after 24 hrs by propidium iodide staining-based flow cytometry (reference value: 18.4%); type: functional
EOL1 [10] = assay: Cell cycle arrest in human EOL-1 cells assessed as accumulation at G1 phase at 1 uM after 24 hrs by propidium iodide staining-based flow cytometry (reference value: 60.9%); type: functional
K562 [11] = assay: Cytotoxicity against human K562 cells assessed as growth inhibition after 72 hrs by calcein-AM dye based fluorescence assay; type: functional; conditions: K562, 72 h
[12] = biological target: Cyclin-dependent kinase 2/cyclin E1 (Homo sapiens, UniProt P24941); assay: Inhibition of CDK2/cyclin E (unknown origin) expressed in baculovirus infected insect Sf9 cells using histone H1 as substrate in presence of [gamma-33P]ATP
EOL1 [13] = assay: Cell cycle arrest in human EOL-1 cells assessed as accumulation at G2/M phase at 0.04 uM after 24 hrs by propidium iodide staining-based flow cytometry (reference value: 18.4%); type: functional
EOL1 [14] = assay: Cytotoxicity against human EOL-1 cells assessed as growth inhibition after 72 hrs by calcein-AM dye based fluorescence assay; type: functional; conditions: EOL1, 72 h
EOL1 [15] = assay: Cell cycle arrest in human EOL-1 cells assessed as accumulation at G2/M phase at 0.008 uM after 24 hrs by propidium iodide staining-based flow cytometry (reference value: 18.4%); type: functional
EOL1 [16] = assay: Cell cycle arrest in human EOL-1 cells assessed as accumulation at G1 phase at 0.008 uM after 24 hrs by propidium iodide staining-based flow cytometry (reference value: 60.9%); type: functional
EOL1 [17] = assay: Cell cycle arrest in human EOL-1 cells assessed as accumulation at S phase at 0.2 uM after 24 hrs by propidium iodide staining-based flow cytometry (reference value: 20.7%); type: functional
EOL1 [18] = assay: Cell cycle arrest in human EOL-1 cells assessed as accumulation at sub-G1 phase at 0.008 uM after 24 hrs by propidium iodide staining-based flow cytometry (reference value: 20%); type: functional
EOL1 [19] = assay: Cell cycle arrest in human EOL-1 cells assessed as accumulation at sub-G1 phase at 1 uM after 24 hrs by propidium iodide staining-based flow cytometry (reference value: 20%); type: functional
EOL1 [20] = assay: Cell cycle arrest in human EOL-1 cells assessed as accumulation at G1 phase at 0.04 uM after 24 hrs by propidium iodide staining-based flow cytometry (reference value: 60.9%); type: functional
BT-474 = assay: Cytotoxicity against human BT474 cells assessed as growth inhibition after 72 hrs by calcein-AM dye based fluorescence assay; type: functional; conditions: BT-474, 72 h
K562 [21] = assay: Cell cycle arrest in human K562 cells assessed as G1/G2-M ratio at GI50 concentration after 24 hrs by propidium iodide staining-based flow cytometry relative to control; type: functional
EOL1 [22] = assay: Cell cycle arrest in human EOL-1 cells assessed as accumulation at sub-G1 phase at 0.2 uM after 24 hrs by propidium iodide staining-based flow cytometry (reference value: 20%); type: functional
EOL1 [23] = assay: Cell cycle arrest in human EOL-1 cells assessed as accumulation at S phase at 0.04 uM after 24 hrs by propidium iodide staining-based flow cytometry (reference value: 20.7%); type: functional
[24] = biological target: Platelet-derived growth factor receptor alpha (Homo sapiens, UniProt P16234); assay: Inhibition of recombinant human N-terminal GST-His6 tagged PDGFRalpha (Q551 to L1089 residues) expressed in Sf9 insect cells using poly(Ala,Glu,Lys,Tyr)6:2:5:1 hydrobromide as substrate in presence of [gamma-33P]ATP
Platelet-derived growth factor receptor alpha, sequence (P16234 whole entry, the tested form may be a part): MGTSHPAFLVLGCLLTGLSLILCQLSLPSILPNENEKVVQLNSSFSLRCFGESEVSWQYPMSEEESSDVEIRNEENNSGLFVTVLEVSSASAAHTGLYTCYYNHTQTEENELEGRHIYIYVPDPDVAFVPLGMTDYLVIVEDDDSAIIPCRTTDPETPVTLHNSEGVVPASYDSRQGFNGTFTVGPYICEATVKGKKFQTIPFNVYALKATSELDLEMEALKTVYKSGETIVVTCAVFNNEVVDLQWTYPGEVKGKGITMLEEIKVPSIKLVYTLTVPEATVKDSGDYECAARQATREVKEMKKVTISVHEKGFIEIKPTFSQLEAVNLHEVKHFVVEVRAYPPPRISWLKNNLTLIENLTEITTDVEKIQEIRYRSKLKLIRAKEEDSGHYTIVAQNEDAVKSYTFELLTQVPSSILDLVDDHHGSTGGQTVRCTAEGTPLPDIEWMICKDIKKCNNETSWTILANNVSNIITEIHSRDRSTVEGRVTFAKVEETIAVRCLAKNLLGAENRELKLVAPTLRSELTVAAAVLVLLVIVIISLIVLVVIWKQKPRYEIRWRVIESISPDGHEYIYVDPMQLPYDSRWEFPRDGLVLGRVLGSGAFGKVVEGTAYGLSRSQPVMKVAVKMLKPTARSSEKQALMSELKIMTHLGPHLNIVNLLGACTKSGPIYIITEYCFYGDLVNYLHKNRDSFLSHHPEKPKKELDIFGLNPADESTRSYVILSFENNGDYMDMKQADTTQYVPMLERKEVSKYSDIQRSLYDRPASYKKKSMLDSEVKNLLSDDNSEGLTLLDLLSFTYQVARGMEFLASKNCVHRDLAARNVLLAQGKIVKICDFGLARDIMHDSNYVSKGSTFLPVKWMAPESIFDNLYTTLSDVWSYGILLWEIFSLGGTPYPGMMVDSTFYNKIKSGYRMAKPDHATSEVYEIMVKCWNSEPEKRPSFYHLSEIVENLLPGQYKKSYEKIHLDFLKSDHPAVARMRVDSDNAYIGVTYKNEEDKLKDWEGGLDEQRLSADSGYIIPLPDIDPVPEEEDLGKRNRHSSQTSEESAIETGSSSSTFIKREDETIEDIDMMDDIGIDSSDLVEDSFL

- IC50 [12]: 275 nM
- IC50 [24]: 66 nM
SMILES: CC(C)CCn1cnc2c(Nc3cccc(Cl)c3)nc(N[C@H]3CC[C@H](N)CC3)nc21
- Activity (EOL1 [1]): 86.3%
- GI50 (MCF7): 2100 nM
- Activity (EOL1 [2]): 36.5%
- Activity (EOL1 [3]): 3.1%
- Activity (EOL1 [4]): 14.5%
- Ratio (EOL1 [5]): 6
- Ratio (HCC827 [6]): 1.33
- GI50 (HCC827 [7]): 10300 nM
- Activity (EOL1 [8]): 12.5%
- Activity (EOL1 [9]): 5.6%
- Activity (EOL1 [10]): 79.9%
- GI50 (K562 [11]): 1500 nM
- Activity (EOL1 [13]): 6.2%
- GI50 (EOL1 [14]): 60 nM
- Activity (EOL1 [15]): 10.4%
- Activity (EOL1 [16]): 77.1%
- Activity (EOL1 [17]): 10.6%
- Activity (EOL1 [18]): 27.9%
- Activity (EOL1 [19]): 46.3%
- Activity (EOL1 [20]): 86.1%
- GI50 (BT-474): 3800 nM
- Ratio (K562 [21]): 1.1
- Activity (EOL1 [22]): 49.8%
- Activity (EOL1 [23]): 7.7%
